Experimental data taken from patent US20240409602A1, “PEPTIDE MODULATORS OF NEUROLIGIN 4-NEUREXIN 1-BETA AXIS FOR TREATMENT OF LIVER DISORDERS” (HADASIT MEDICAL RESEARCH SERVICES AND DEVELOPMENT LTD., priority 2022, published 2024).
One block for each molecule: values may come before it. No end group written: not given here.

Assays:
NK cells = test: NK cell activation (CD107a) in monoculture, flow cytometry; type: cell-based, human
Source text: (§1) Inhibitory Peptide synthesis: inhibitory peptide 1: MEQGEFLNYD (SEQ ID NO: 1), inhibitory peptide 2: QILMEQGEFLNYDIM (SEQ ID NO: 2), inhibitory peptide 3: […] (SEQ ID NO: 3), and a control peptide having a scrambled sequence: LEGEDQNFYM (SEQ ID NO: 7) were synthesized by Pepscan Ltd. at a purity of 98.3%.
(§2) Cells: primary NK cells were isolated from patients having advanced fibrosis, human hepatic stellate cells (LX2) were commercially purchased.
Monoculture conditions: peptides were supplemented to media of cultured NK cells for 6 h stimulation.
(§3) Fluorescence-activated cell sorting (FACS): Staining colors of antibodies was as follows: αSMA>PE, CD107>FITC, CD56>. After analysis using LSR Fortessa analyzer, raw data was transferred to analysis program FCS Express v7.0.
Three peptides potentially having an inhibitory effect on NLGn4-Nrx1β PPI were generated. The three peptides (peptide 1, peptide 2, and peptide 3) consist of different amino acid sequences (SEQ ID NO: 1, SEQ ID NO: 2, and SEQ ID NO: 3, respectively) that vary in length, all derived from the same binding site for the NLGn4X ligand β-neurexin. The active binding site includes a domain containing the amino acids 359-364 in NLGn4X and the epitopes critical for binding are E361, L363, H267, Y463, and E270.
Initially, peptides were screened for their effect on the activity of NK cells, which was evaluated by measuring the levels of CD107a activation marker. Monocultures of NK cells were stimulated with increasing concentrations of the potentially inhibitory NLGn4-Nrx1β PPI peptides (FIG. 1 and FIGS. 2A-B).

LX2 cells [1] = test: αSMA in LX2 cells co-cultured with peptide pre-activated NK cells, flow cytometry; type: cell-based, human
Experimental: as §2
Co-culture conditions: co-cultures conditions—peptides were supplemented to media of cultured NK cells for 6 h stimulation followed by a wash, trypsinization, and coculturing on LX2 cells for an additional 24 h.
as §3
To test if NLGn4-Nrx1β PPI inhibitory peptides mediated deactivation of LX2 cells is more prominent in the presence of NK cells, a co-culture setting was established for LX2 cells in the presence or absence of activated NK cells (FIGS. 4A-C).
In this setting, NK cells were stimulated with increasing concentrations of NLGn4-Nrx1βPPI inhibitory peptides before co-culturing them with LX2 cells, to examine whether pre-activation makes them more functional in deactivating LX2 cells.

LX2 cells [2] = test: LX2 cell activity (αSMA) in monoculture, flow cytometry; type: cell-based, human; details: monoculture, 2000, 4000, 8000 ng/ml (peptide 3: 2000 or 4000 ng/ml), vs untreated
Source text: as §1, §2, §3
Following that, the NLGn4-Nrx1β PPI peptides were screened for their effect on the activity of LX2 cells, which was evaluated by measuring the levels of αSMA activation marker. Monocultures of LX2 cells were stimulated with increasing concentrations of the NLGn4-Nrx1βPPI peptides (FIGS. 3A-C).

[3] = test system: CCl4-induced mice (acute hepatic fibrosis model); test: Liver histology (H&E, Sirius Red, Masson's trichrome) in CCl4 model; type: in vivo; details: 5 or 10 mg/mice i.p. 3×/week for 4 weeks
Experimental: (§4) Animal model: 40 WT naïve C57BL/6J male mice (12 weeks) were either induced for acute hepatic fibrosis by i.p injections of 0.5 μl pure carbon tetrachloride CCl4/g body weight (one to nine dilution in mineral oil) (CCl4; Sigma, C-5331) 3×/week for four weeks as an advanced model of hepatic fibrosis, or left untreated (induced n=32, control n=8 per experiment). NLGn4-Nrx1β PPI modulator peptide 1 was i.p injected to CCl4 induced mice as preventive doses from the beginning of the model starting at 1st week of CCl4 at a concentration of 5 and 10 mg/mice 3×/week for four weeks (5 mg/mice n=8, 10 mg/mice n=8). A scrambled peptide was also i.p injected to CCl4 induced mice (5 mg/mice n=8, 10 mg/mice n=8). Food and water intake were recorded every week. Mice were sacrificed two days after the final CCl4 injection. To this end, the animals were weighed and anesthetized with inhaled 5% isoflurane for 10 seconds before cervical dislocation.
(§5) Histological and biochemical assessment of mice livers: The posterior one-third of the liver was fixed in 4% formalin for 24 hours and then paraffin-embedded in an automated tissue processor. […] Serum ALT concentrations were determined using ELISA. […]

[4] = test system: CCl4-induced mice (acute hepatic fibrosis model); test: Serum ALT by ELISA in CCl4 model; type: in vivo; details: 5 or 10 mg/mice i.p. 3×/week for 4 weeks
Experimental: as §4, §5

liver NK cells = test: F-actin expression in liver NK cells (western blot, immunofluorescence) in CCl4 model; type: in vivo, mice; details: immune-stained liver tissue, confocal microscopy
Experimental: as §4, with “A scrambled peptide was also i.p injected to CCl4 induced mice (5 mg/mice n=8, 10 mg/mice n=8).” left out, “Mice were sacrificed two days after the final CCl4 injection. To this end, the animals were weighed and anesthetized with inhaled 5% isoflurane for 10 seconds before cervical dislocation.” left out
Western blot analysis: Liver protein extracts were homogenized with buffer (50 mmol/L Tris-HCl [pH 7.61, 0.25% Triton-X 100, 0.15 M NaCl, 10 mM CaCl2) and complete mini EDTA-free protease inhibitor cocktail (Roche Diagnostics, Mannheim, Germany). […] Immunoreactivity was detected using an ECL kit (Abcam).
Immunofluorescence staining: For deparaffinization, paraffin-embedded sections were placed at 60° C. for 15 minutes, incubated in xylene at room temperature for 15 minutes, and then transferred sequentially to 100% EtOH, 95% EtOH, 70% EtOH, and 50% EtOH for four minutes each at room temperature. […] An argon laser (488 nm excitation) was used to detect green fluorescence, and an Alexa Fluor laser (552 nm) to detect red fluorescence. […]

β-neurexin = β-neurexin expression in liver by RT-PCR in CCl4 model; type: in vivo; details: relative to naïve mice, 5 or 10 mg/mice i.p. 3×/week for 4 weeks
Hep3B cells = test: Cell cycle analysis of Hep3B cells by flow cytometry, PI staining; type: cell-based, human; details: 8000 ng/ml
Experimental: Cell cycle analysis by Flow cytometry: evaluation of cell cycle stage of Hep3B HCC cells, was performed according to a standard protocol, using Propidium-Iodide (PI)-staining of nuclei. To […] attenuation of the proliferative capabilities of HCC cells following modulation by peptide 1, the stage of the cell cycle of Hep3B cells treated with 8000 ng/ml peptide 1 or with a control peptide having a scrambled sequence was evaluate using flow cytometry and Propidium Iodide (PI)-staining.

[5] = target: neurexin 1β (Nrx1β) expressed on Hep3B hepatocellular carcinoma cells (human, UniProt Q9ULB1-3 31-1547); test: cell-based or functional assay
Chain of neurexin 1β (Nrx1β) expressed on Hep3B hepatocellular carcinoma cells (Q9ULB1 other isoform, or with tags, fused parts or gaps limits assumed): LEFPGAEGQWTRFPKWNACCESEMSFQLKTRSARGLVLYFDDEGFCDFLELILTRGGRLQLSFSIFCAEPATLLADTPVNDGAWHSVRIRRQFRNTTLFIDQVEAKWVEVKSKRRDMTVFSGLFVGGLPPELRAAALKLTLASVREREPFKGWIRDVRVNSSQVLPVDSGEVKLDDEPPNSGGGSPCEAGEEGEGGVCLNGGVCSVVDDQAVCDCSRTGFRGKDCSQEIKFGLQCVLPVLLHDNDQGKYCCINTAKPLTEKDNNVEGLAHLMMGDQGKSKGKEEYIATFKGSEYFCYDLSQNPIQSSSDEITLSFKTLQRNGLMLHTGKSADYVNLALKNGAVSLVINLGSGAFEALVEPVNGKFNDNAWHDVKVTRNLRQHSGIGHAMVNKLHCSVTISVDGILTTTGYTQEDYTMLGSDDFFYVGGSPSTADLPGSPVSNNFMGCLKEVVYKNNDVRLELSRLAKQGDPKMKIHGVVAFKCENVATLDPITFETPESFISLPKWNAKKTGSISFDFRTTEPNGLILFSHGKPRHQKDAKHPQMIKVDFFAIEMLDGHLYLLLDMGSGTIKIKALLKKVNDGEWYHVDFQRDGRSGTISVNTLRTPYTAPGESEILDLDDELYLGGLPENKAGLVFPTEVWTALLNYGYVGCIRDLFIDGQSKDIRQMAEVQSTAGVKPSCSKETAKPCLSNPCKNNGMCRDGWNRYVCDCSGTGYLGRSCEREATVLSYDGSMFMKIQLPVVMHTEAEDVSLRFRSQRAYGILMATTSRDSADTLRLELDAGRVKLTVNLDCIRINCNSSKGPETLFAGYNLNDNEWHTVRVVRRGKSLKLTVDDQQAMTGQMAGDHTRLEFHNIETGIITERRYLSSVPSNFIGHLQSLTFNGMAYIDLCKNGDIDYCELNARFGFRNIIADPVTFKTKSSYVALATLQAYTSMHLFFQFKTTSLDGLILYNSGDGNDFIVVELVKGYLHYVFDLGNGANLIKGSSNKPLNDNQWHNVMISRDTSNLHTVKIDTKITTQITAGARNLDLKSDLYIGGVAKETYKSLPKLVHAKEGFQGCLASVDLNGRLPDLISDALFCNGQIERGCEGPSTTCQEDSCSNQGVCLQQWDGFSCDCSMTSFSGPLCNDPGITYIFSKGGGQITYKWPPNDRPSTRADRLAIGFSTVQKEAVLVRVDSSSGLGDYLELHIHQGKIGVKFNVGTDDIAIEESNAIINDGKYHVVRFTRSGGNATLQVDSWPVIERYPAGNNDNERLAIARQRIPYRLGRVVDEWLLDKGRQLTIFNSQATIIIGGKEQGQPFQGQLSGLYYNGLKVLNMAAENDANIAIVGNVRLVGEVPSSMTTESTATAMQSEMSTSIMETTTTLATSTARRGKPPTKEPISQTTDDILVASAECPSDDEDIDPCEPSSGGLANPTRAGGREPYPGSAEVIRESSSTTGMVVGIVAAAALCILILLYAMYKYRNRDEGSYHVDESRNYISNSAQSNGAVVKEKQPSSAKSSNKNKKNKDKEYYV

Molecule: QILMEQGEFLNYDIM [peptide 2]
activity of NK cells (levels of CD107a) (NK cells; monoculture, 6 h stimulation, 2000, 4000, 8000 ng/ml (peptide 3: 2000 or 4000 ng/ml), vs untreated): elevated the activity of the cells
dose dependence of effect on NK cell activity (CD107a) (NK cells; monoculture, increasing concentrations 2000-8000 ng/ml): not dose-dependent
dose dependence of effect in co-culture (αSMA) (LX2 cells [1]; NK cells pre-activated with increasing concentrations): not dose-dependent
activity of LX2 cells (levels of αSMA) in co-culture with pre-activated NK cells (LX2 cells [1]; NK cells pre-stimulated 6 h with 2000-8000 ng/ml peptide, co-culture 24 h): downregulated the activity of the LX2 cells
activity of LX2 cells (levels of αSMA) (LX2 cells [2]): deactivation of the cells

Molecule: DPQILMEQGEFLNYDIMLGV [peptide 3]
toxicity to NK cells (NK cells; inferred from CD107a decrease at higher peptide concentrations): may be toxic to the cells

Molecule: LEGEDQNFYM [scrambled peptide]
collagen deposition / fibrous dense tissue (Sirius Red staining) [3]: increased collagen deposition in perisinusoidal areas
levels of serum ALT [4]: significant increase in ALT levels
F-actin inside NK cells, co-localization with NKP46 (immunofluorescence) (liver NK cells): not seen inside NK cells
levels of β-neurexin in liver (β-neurexin): elevated levels of β-neurexin
percentage of cells existing at a state of G1 (Hep3B cells): 38%
percentage of cells existing at a state of G2-M phase (Hep3B cells): 25%
percentage of cells existing at a state of S-phase (Hep3B cells): 11%

apoptotic marker phosphatidylserine (Annexin-V+/PI-) in Hep3B cells (flow cytometry), peptide 1 against scrambled control peptide [5]: 3 fold increase
expression of PDGFRA and MKI67 proliferation markers in Hep3B cells (flow cytometry), peptide 1 against scrambled control peptide [5]: ~2 fold reduction
percentage of Hep3B cells in G1 phase (PI staining, flow cytometry), 8000 ng/ml peptide 1 against scrambled control peptide [5]: ~2 fold increase
percentage of Hep3B cells in G2-M phase (PI staining, flow cytometry), 8000 ng/ml peptide 1 against scrambled control peptide [5]: 2.5 fold decrease
percentage of Hep3B cells in S-phase (PI staining, flow cytometry), 8000 ng/ml peptide 1 against scrambled control peptide [5]: ~2 fold decrease
phosphorylated AKT/mTOR/P70S6K in Hep3B cells (flow cytometry), peptide 1 against scrambled control peptide [5]: 2 fold reduction
Molecule: MEQGEFLNYD [NLGn4-Nrx1β PPI inhibitory peptide 1]
expression of the necrotic marker CDNK2A in Hep3B cells (flow cytometry), peptide 1 against scrambled control peptide [5]: 2 fold reduction
